Reference: ChEMBL document CHEMBL1144646, “Imidazole moiety replacements in the 3-(1H-benzo[d]imidazol-2-yl)pyridin-2(1H)-one inhibitors of insulin-like growth factor receptor-1 (IGF-1R) to improve cytochrome P450 profile” (Bioorg Med Chem Lett, 2007)

Tests used:
Cytochrome P450 2C9 = Cytochrome P450 2C9 (Homo sapiens, UniProt P11712); test: Inhibition of CYP2C9 in microsomes; format: ADME
Cytochrome P450 3A4 = Cytochrome P450 3A4 (Homo sapiens, UniProt P08684); test: Inhibition of CYP3A4 in microsomes
Sequence of Cytochrome P450 3A4 (P08684 whole entry): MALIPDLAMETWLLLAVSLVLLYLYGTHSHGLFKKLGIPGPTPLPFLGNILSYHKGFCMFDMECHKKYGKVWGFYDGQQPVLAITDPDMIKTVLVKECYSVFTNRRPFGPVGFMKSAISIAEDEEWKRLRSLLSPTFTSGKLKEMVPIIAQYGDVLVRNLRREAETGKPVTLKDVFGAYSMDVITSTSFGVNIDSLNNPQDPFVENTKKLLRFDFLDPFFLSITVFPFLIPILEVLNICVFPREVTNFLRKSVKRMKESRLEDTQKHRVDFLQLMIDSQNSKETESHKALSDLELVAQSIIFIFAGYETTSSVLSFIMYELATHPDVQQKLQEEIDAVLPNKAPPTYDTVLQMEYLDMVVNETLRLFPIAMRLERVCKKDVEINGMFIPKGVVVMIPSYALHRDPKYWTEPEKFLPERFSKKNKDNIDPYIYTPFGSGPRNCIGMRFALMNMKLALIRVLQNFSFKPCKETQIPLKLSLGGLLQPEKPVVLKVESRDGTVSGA

Cytochrome P450 1A2 = molecular target: T1, Cytochrome P450 1A2 (Homo sapiens, UniProt P05177); test: Inhibition of CYP1A2 in microsomes; format: ADME
T1 sequence (P05177 whole entry): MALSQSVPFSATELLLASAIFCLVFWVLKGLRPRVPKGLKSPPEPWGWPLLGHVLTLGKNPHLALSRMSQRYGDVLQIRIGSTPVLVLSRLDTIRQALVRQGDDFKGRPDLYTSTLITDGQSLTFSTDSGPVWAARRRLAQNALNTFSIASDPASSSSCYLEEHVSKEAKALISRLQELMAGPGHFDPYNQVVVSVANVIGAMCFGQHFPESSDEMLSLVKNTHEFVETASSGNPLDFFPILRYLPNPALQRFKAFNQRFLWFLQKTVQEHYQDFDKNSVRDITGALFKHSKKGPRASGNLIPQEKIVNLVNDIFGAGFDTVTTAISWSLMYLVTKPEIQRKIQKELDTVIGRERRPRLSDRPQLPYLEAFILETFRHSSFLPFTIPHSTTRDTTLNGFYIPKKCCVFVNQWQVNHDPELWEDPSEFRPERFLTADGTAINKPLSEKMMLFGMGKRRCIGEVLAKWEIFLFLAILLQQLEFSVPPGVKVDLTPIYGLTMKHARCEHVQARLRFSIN

Cytochrome P450 2C19 = Cytochrome P450 2C19 (Homo sapiens, UniProt P33261); test: Inhibition of CYP2C19 in microsomes; format: ADME
Sequence of Cytochrome P450 2C19 (P33261 whole entry): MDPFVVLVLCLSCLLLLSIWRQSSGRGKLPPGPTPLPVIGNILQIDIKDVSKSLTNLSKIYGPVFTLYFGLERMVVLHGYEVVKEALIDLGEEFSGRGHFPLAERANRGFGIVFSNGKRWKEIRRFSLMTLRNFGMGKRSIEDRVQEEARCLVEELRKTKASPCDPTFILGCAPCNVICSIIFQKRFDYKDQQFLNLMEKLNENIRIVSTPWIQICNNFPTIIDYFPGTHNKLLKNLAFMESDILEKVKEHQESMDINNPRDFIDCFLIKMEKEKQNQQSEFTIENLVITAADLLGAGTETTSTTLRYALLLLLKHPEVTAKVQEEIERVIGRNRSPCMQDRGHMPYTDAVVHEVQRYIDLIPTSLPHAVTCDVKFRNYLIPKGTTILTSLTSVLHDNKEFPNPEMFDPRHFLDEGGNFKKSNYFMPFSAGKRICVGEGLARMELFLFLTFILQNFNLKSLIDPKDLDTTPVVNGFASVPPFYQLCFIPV

Cytochrome P450 2D6 = Cytochrome P450 2D6 (Homo sapiens, UniProt P10635); test: Inhibition of CYP2D6 in microsomes; format: ADME
Sequence of Cytochrome P450 2D6 (P10635 whole entry): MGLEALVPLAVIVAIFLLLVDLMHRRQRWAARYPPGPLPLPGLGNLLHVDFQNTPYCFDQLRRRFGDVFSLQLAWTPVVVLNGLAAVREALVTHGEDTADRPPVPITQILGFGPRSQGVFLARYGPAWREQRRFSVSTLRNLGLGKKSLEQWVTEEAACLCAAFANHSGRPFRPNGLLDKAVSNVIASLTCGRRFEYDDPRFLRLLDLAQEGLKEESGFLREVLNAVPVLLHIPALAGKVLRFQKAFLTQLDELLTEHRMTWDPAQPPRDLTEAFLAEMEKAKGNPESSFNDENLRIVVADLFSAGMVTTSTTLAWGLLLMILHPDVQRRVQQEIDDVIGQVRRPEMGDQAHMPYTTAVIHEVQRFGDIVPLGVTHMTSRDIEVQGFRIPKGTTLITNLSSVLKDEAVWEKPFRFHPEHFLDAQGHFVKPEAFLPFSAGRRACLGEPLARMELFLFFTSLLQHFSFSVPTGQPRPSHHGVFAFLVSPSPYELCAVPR

Sequence of Cytochrome P450 2C9 (P11712 whole entry): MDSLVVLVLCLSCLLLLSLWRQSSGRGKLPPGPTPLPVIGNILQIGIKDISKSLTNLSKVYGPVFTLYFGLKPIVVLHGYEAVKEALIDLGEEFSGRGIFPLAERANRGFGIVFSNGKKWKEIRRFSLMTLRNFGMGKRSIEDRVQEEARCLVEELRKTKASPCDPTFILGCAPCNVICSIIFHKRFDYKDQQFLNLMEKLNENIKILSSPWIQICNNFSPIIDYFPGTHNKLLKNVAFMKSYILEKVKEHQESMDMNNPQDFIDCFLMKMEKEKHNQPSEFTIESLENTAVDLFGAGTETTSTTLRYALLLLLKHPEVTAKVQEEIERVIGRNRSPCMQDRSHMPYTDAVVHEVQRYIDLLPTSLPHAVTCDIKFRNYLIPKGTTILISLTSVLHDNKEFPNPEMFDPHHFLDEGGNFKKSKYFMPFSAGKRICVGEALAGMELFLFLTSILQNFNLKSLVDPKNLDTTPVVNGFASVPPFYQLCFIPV

| Structure (SMILES) | IC50 (Cytochrome P450 2C9) [µM] | IC50 (Cytochrome P450 3A4) [µM] | IC50 (Cytochrome P450 1A2) [µM] | IC50 (Cytochrome P450 2C19) [µM] | IC50 (Cytochrome P450 2D6) [µM] |
| --- | --- | --- | --- | --- | --- |
| Cc1cc(-n2ccnc2)cc2[nH]c(-c3c(NCC(O)c4cccc(Cl)c4)cc[nH]c3=O)nc12 (configuration not stated) | < 0.04 | < 0.046 | < 0.04 | < 0.04 |  |
| Cc1cc(C(=O)NC2CCCC2)cc2[nH]c(-c3c(NCC(O)c4cccc(Cl)c4)cc[nH]c3=O)nc12 (configuration not stated) | 3.5 | 1.6 | 9.8 | 0.48 |  |
| Cc1cc(-n2ccnc2)cc2[nH]c(-c3c(N[C@H](CO)Cc4ccccc4)cc[nH]c3=O)nc12 | < 0.04 | 0.06 | < 0.04 | < 0.04 | 0.56 |
| Cc1cc(-c2ccccc2)cc2[nH]c(-c3c(N[C@H](CO)Cc4ccccc4)cc[nH]c3=O)nc12 | 2.3 | 3.6 | 0.58 | 0.53 |  |
| Cc1cc(Br)cc2[nH]c(-c3c(N[C@H](CO)Cc4ccccc4)cc[nH]c3=O)nc12 | 0.72 | 3.1 | 0.052 | 0.32 |  |
| Cc1cc(C(=O)NC2CC2)cc2[nH]c(-c3c(NCC(O)c4cccc(Cl)c4)cc[nH]c3=O)nc12 (configuration not stated) | 8.1 | 10 | 93 | 3.5 |  |
| Cc1c[nH]c(-c2cc(C)c3[nH]c(-c4c(NCC(O)c5cccc(Cl)c5)cc[nH]c4=O)nc3c2)n1 (configuration not stated) | 7.8 | 0.36 | 5.8 | 2 |  |
| Cc1cc(C(=O)NC2CCCCC2)cc2[nH]c(-c3c(NCC(O)c4cccc(Cl)c4)cc[nH]c3=O)nc12 (configuration not stated) | 6.6 | 11 | 59 | 1.3 |  |
| COc1ccc(-c2cc(C)c3nc(-c4c(N[C@H](CO)Cc5ccccc5)cc[nH]c4=O)[nH]c3c2)cc1 | 11 | 6.8 | 12 | 2.2 |  |
| Cc1cc(-n2ccnc2)cc2nc(-c3c(NCc4ccccn4)cc[nH]c3=O)[nH]c12 | < 0.03 | 0.08 | < 0.03 | 0.1 | 5.7 |
| Cc1cc(-c2ccc(F)cc2)cc2[nH]c(-c3c(N[C@H](CO)Cc4ccccc4)cc[nH]c3=O)nc12 | 4 | 6.3 | 3.2 | 1 |  |

Continued, in another order:

| IC50 (Cytochrome P450 2C9) [µM] | IC50 (Cytochrome P450 3A4) [µM] | IC50 (Cytochrome P450 1A2) [µM] | IC50 (Cytochrome P450 2C19) [µM] | Structure (SMILES) | IC50 (Cytochrome P450 2D6) [µM] |
| --- | --- | --- | --- | --- | --- |
| 91 | 35 | 53 | 17 | Cc1cc(C2=NCCN2C)cc2[nH]c(-c3c(NCC(O)c4cccc(Cl)c4)cc[nH]c3=O)nc12 (configuration not stated) |  |
| 2.8 | 2.2 | 15 | 1.7 | Cc1cc(C(=O)N(C)C)cc2[nH]c(-c3c(NCC(O)c4cccc(Cl)c4)cc[nH]c3=O)nc12 (configuration not stated) |  |
| 67 |  | 10 | 4.7 | Cc1cc(C2=NC(C)CN2)cc2[nH]c(-c3c(NCC(O)c4cccc(Cl)c4)cc[nH]c3=O)nc12 (configuration not stated) |  |
| 100 | 16 | 20 | 8.5 | Cc1cc(C2=NCCCN2)cc2[nH]c(-c3c(NCC(O)c4cccc(Cl)c4)cc[nH]c3=O)nc12 (configuration not stated) |  |
| 76 | 15 | 25 | 3.9 | CNC(=N)c1cc(C)c2nc(-c3c(NCC(O)c4cccc(Cl)c4)cc[nH]c3=O)[nH]c2c1 (configuration not stated) |  |
| 1.5 | 0.71 | 0.38 | 0.26 | Cc1cccc2[nH]c(-c3c(NCC(O)c4cccc(Cl)c4)cc[nH]c3=O)nc12 (configuration not stated) |  |
| 47 | 13 | 11 | 5.1 | Cc1cc(C2=NC(C)(C)CN2)cc2[nH]c(-c3c(NCC(O)c4cccc(Cl)c4)cc[nH]c3=O)nc12 (configuration not stated) |  |
| 2.9 | 3.7 | 21 | 2.1 | CNC(=O)c1cc(C)c2nc(-c3c(NCC(O)c4cccc(Cl)c4)cc[nH]c3=O)[nH]c2c1 (configuration not stated) |  |
